Results published in patent US10308631B2, “Selective anti-cancer compounds” (NATIONAL UNIVERSITY OF SINGAPORE, priority 2015, dated 2019).

Columns and labels:
[1] = test system: HCT-15 human colon adenocarcinoma xenografts; assay: Tumour xenograft efficacy, tumour volume; format: in vivo, mice; details: HCT15 xenografts; intravenously 40 mg/kg, 3 times every 4 days; vs vehicle
Procedure: A, B: is a graphical representation of tumour volumes estimated periodically as indicated. Mice bearing established tumour xenografts using HCT15 or MDA-MB-231 cells were treated orally (PO) or intraperitoneally (IP) twice a day with the indicated doses of Compound 1 or Compound 16 for 12 or 15 days. Paclitaxel (PTX) was given intravenously at dose of 40 mg/kg, 3 times every 4 days. Error bars show ±S.D. from mean tumour volumes obtained from 6 mice. Student's t-test was performed to determine the statistical significance (*=p<0.005). C: is a bar graph showing quantification of cells (n>100 per condition) with misaligned chromosomes and multipolar mitotic-spindles. […] tumour sections treated with Compound 16 (80 mg/kg) or control vehicle for 12 days were stained with anti-β-tubulin antibodies and DAPI. The percentage of cells with misaligned chromosomes and multipolar mitotic-spindles was quantified and plotted with mean values±S.D.
Mice bearing established tumor xenografts using HCT15 or MDA-MB-231 cells were treated orally (PO) or intraperitoneally (IP) twice a day with the indicated doses of Compound 1 or its derivative Compound 16 (b5) for 12 or 15 days, respectively. For comparison, paclitaxel (PTX) was given intravenously to mice bearing established tumour xenografts using HCT15 at dose of 40 mg/kg, 3 times every 4 days.

[2] = test system: non-transformed normal and oncogene-transformed human fibroblast BJ cell lines; assay: Chemoprotection from paclitaxel, Annexin V/PI FACS; format: cell-based; details: paclitaxel treatment alone, 50 nM
Procedure: Normal and transformed BJ cells were treated with Compound 25 at 5 μM. 48 h after treatment, cells were further treated with (A) 50 nM paclitaxel (PTX) or (B) etoposide, at the concentrations shown, for additional 48 or 72 h, respectively. A: cells were collected, stained with Annexin V together with propidium iodide (PI) and subjected to FACS analysis. […] Student's t-test was performed to determine the statistical significance (***=P<0.0001, **=P<0.001, *=P<0.05, n.s.=no significance).
The chemoprotective efficacies of the Compounds in Group 2 were further evaluated by measuring their ability to protect non-transformed normal cells, but not cancer and oncogene-transformed counterparts, from the most well-known as well as clinically-relevant chemotherapeutic agents, paclitaxel and etoposide. To determine this, isogenic non-transformed normal and oncogene-transformed human fibroblast BJ cell lines, cultured in DMEM supplemented with 10% FBS, were pre-treated with Compound 25 (a166—Group 2) at 5 μM. 48 h after treatment, cells were further treated with paclitaxel (PTX; FIG. 13A) or etoposide (FIG. 13B) for an additional 72 h. […] For etoposide, cell viability was determined using MTT assay and plotted in comparison with DMSO control vehicle with mean values±S.D. (n=4).

CC(=O)O[C@H]1C(=O)[C@@]2(C)[C@H]([C@H](OC(=O)c3ccccc3)[C@]3(O)C[C@H](OC(=O)[C@H](O)[C@@H](NC(=O)c4ccccc4)c4ccccc4)C(C)=C1C3(C)C)[C@]1(OC(C)=O)CO[C@@H]1C[C@@H]2O [paclitaxel, reference compound]
anti-tumour effect (tumour volume) [1]: did not show significant anti-tumour effects | selectivity of cell death for oncogene-transformed BJ cells [2]: showed a minimal selectivity for oncogene-transformed BJ cells
